Drawing on patent US8865894B2, “Oxazolidin-2-one compounds and uses thereof” (Novartis AG, priority 2012, dated 2014), this text covers IC50 and melting point for eleven molecules.

The target of one data set is PI3Kgamma (Homo sapiens, UniProt P48736). As to the kind of experiment: Biochemical PI3Kgamma (TR-FRET Adapta Universal Kinase Assay). The settings on record: mean of n measurements, read-out: PIK3g/ IC50. The protocol: (§1) Test compounds were dissolved in DMSO (10 mM) and transferred into 1.4 mL flat bottom or V-shaped Matrix tubes carrying a unique 2D matrix chip by individual Novartis compound hubs. The numbers of these chips were distinctively linked to Novartis Pharma Numbers. The stock solutions were stored at −20° C. if not used immediately. For the test procedure the vials were defrosted and identified by a scanner whereby a working sheet was generated that guided the subsequent working steps.
(§2) Compounds were either manually diluted in DMSO for individual experiments (96 wells enabling 10 cpds at 8 (single points) concentrations) as described in or prepared as described below if tested for profiling in 384-wells. This format enabled the assay of maximally 40 individual test compounds at 8 concentrations (single points) including 4 reference compounds. The dilution protocol included the production of “pre-dilution plates”, “master plates” and “assay plates”.
(§3) 96 polypropylene well plates were used as pre-dilution plates. A total of 4 pre-dilution plates were prepared including 10 test compounds each on the plate positions A1-A10, one standard compound at A11 and one DMSO control at A12. Programs have been written to run these pipetting steps on the HamiltonSTAR robots.
100 μL of individual compound dilutions including standard compound and controls of the 4 “pre-dilution plates” were transferred into a 384 “master plate” including the following concentrations 1,820, 564, 182, 54.6, 18.2, 5.46, 1.82 and 0.546 μM, respectively in 90% DMSO.
(§4) Identical “assay plates” were then prepared by pipetting 50 nL each of compound dilutions of the “master plates” into 384-well “assay plates”. The compounds were mixed with 4.5 μL of assays components plus 4.5 μL enzyme corresponding to a 1:181 dilution enabling the final concentration of 10, 3.0, 1.0, 0.3, 0.1, 0.03, 0.01 and 0.003 μM, respectively. The preparation of the “master plates” was handled by the Matrix PlateMate Plus robot and replication of “assay plates” by the HummingBird robot.
The TR-FRET Adapta™ Universal Kinase Assay Kit was purchased from Invitrogen Corporation (Carlsbad/CA, USA) (Cat. No. PV5099). The kit contains the following reagents: Adapta Eu-anti-ADP Antibody (Europium labeled anti-ADP antibody in HEPES buffered saline, Cat. No. PV5097), Alexa Fluor® 647-labeled ADP tracer (Alexa Fluor® 647-labeled ADP tracer in HEPES buffered saline, Cat. No. PV5098), proprietary TR-FRET dilution buffer pH 7.5 (Cat. No. PV3574).
PIK3CD substrate Phosphatidylinositol was obtained from Invitrogen (vesicules consisting of 2 mM PI in 50 mM HEPES pH7.5; Cat. No. PV5371). PIK3CG substrate Phosphatidylinositol-4,5-bisphosphate (PIP(4,5)2 was obtained from Invitrogen (PIP2:PS large unilamellar vesicules consisting of 1 mM PIP2: 19 mM PS in 50 mM HEPES pH7.5, 3 mM MgCl2, 1 mM EGTA; Cat. No. PV5100).
Time-Resolved Fluorescence Resonance Energy Transfer (TR-FRET) is a technology based on energy transfer between two adjacent dyes, from an excited electron in one dye (the donor) to an electron of an adjacent dye (the acceptor) through resonance, then released as a photon. This energy transfer is detected by an increase in the fluorescence emission of the acceptor, and a decrease in the fluorescence emission of the donor. TR-FRET assays for protein kinases use a long-lifetime lanthanide Terbium or Europium chelates as the donor species which overcome interference from compound autofluorescence or light scatter from precipitated compounds, by introducing a delay after excitation by a flashlamp excitation source. Results are often expressed as a ratio of the intensities of the acceptor and donor fluorophores. The ratiometric nature of such a value corrects for differences in assay volumes between wells, as well as corrects for quenching effects due to colored compounds. The Adapta™ assay can be divided into two phases: a kinase reaction phase and an ADP detection phase. […]
(In general: TR-FRET usually uses a lanthanide donor and a delayed reading to cut background.)

A further data set addresses T1, human PI3Kβ (Homo sapiens, UniProt P42338).
T1 construct: made in house
As to the kind of experiment: Biochemical PI3Kbeta (KinaseGlo luminescent kinase assay). The settings on record: 1 μM ATP, mean of n measurements, read-out: PI3Kb/ IC50. As for the experimental part: as §1, §2, §3, §4
Catalytically active human PI3Kα, PI3Kβ, PI3Kδ, and mTOR were cloned, expressed and purified as described (Maira S M, Stauffer F, Brueggen J, Furet P, Schnell C, Fritsch C, Brachmann S, Chène P, de Pover A, Schoemaker K, Fabbro D, Gabriel D, Simonen M, Murphy L, Finan P, Sellers W, García-Echeverría C (2008), Mol Cancer Ther. 7:1851-63 and Maira S M, Pecchi S, Brueggen J, Huh K, Schnell C, Fritsch C, Nagel T, Wiesmann M, Brachmann S, Dorsch M, Chène P, Schoemaker K, De Pover A, Menezes D, Fabbro D, Sellers W, García-Echeverría C, Voliva C F (2011), Mol. Cancer Ther. accepted).
The luminescence-based ATP detection reagent KinaseGlo was obtained from Promega, (Cat. No. V6714, Lot No. 236161) through Catalys, Wallisellen, Switzerland. (L-alpha-phosphatidylinositol (PI), Liver, Bovine) were obtained from Avanti Polar Lipid (Cat. No. 840042C, Lot#LPI-274), Phosphatidylinositol-4,5-bisphosphate (PIP(4,5)2 (Avanti, Cat. No. 840046×) or L-α-phosphatidylinositol (PI) was obtained from Avanti Polar Lipid (Cat. No. 840042C, Lot#LPI-274). L-α-Phosphatidylserine (PS) was from Avanti Polar Lipid (Cat. No. 840032C), n-OctylGlucoside Avanti Polar Lipid (Cat. No. 10634425001). Luminescence is a well established readout to determine ATP concentrations and can thus be used to follow the activity of many kinases regardless of their substrate. The Kinase Glo Luminescent Kinase Assay (Promega, Madison/Wis., USA) is a homogeneous HTS method of measuring kinase activity by quantifying the amount of ATP remaining in solution following a kinase reaction.
50 nL of compound dilutions were dispensed onto black 384-well low volume Non Binding Styrene (NBS) plates (Costar Cat. No. NBS#3676) as described in section 8.2. L-α-phosphatidylinositol (PI), provided as 10 mg/ml solution in methanol, was transferred into a glass tube and dried under nitrogen beam. It was then resuspended in 3% OctylGlucoside by vortexing and stored at 4° C. 5 μL of a mix of PI/OG with the PI3Ka and Pi3Kb subtypes were added. Kinase reactions were started by addition of 5 μl of ATP-mix containing in a final volume 10 μL 10 mM TRIS-HCl pH 7.5, 3 mM MgCl2, 50 mM NaCl, 0.05% CHAPS, 1 mM DTT and 1 μM ATP, and occurred at room temperature.
(Kinase-Glo reads ATP consumption through a luciferase reaction.)

T1 sequence (P42338 2-1070 limits assumed): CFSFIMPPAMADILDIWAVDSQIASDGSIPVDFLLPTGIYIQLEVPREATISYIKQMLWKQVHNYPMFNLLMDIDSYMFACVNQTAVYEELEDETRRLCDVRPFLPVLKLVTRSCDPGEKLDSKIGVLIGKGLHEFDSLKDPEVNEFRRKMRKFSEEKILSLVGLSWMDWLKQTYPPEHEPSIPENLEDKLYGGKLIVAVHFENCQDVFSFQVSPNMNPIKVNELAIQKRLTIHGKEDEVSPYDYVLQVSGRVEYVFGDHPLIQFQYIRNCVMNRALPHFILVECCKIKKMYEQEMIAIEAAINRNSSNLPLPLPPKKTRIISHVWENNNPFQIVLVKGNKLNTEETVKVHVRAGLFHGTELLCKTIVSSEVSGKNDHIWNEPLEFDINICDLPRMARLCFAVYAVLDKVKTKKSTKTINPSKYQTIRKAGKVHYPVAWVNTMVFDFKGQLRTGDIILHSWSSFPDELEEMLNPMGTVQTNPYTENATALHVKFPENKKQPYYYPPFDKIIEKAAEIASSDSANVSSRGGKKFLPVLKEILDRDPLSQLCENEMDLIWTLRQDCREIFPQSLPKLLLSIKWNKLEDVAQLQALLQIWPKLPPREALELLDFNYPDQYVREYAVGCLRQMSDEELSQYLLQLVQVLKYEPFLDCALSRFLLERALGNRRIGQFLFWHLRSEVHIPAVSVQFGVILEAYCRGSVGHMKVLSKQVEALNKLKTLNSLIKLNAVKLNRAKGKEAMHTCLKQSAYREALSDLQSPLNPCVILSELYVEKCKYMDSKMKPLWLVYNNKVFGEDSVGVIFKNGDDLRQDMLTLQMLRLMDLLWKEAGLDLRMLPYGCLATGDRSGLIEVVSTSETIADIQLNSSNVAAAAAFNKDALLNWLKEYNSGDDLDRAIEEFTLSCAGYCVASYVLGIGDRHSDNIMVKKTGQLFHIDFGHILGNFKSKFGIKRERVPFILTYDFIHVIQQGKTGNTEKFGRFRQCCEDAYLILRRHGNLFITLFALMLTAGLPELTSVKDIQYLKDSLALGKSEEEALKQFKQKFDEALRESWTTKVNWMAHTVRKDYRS
PI3Kgamma, sequence (P48736 whole entry, species assumed): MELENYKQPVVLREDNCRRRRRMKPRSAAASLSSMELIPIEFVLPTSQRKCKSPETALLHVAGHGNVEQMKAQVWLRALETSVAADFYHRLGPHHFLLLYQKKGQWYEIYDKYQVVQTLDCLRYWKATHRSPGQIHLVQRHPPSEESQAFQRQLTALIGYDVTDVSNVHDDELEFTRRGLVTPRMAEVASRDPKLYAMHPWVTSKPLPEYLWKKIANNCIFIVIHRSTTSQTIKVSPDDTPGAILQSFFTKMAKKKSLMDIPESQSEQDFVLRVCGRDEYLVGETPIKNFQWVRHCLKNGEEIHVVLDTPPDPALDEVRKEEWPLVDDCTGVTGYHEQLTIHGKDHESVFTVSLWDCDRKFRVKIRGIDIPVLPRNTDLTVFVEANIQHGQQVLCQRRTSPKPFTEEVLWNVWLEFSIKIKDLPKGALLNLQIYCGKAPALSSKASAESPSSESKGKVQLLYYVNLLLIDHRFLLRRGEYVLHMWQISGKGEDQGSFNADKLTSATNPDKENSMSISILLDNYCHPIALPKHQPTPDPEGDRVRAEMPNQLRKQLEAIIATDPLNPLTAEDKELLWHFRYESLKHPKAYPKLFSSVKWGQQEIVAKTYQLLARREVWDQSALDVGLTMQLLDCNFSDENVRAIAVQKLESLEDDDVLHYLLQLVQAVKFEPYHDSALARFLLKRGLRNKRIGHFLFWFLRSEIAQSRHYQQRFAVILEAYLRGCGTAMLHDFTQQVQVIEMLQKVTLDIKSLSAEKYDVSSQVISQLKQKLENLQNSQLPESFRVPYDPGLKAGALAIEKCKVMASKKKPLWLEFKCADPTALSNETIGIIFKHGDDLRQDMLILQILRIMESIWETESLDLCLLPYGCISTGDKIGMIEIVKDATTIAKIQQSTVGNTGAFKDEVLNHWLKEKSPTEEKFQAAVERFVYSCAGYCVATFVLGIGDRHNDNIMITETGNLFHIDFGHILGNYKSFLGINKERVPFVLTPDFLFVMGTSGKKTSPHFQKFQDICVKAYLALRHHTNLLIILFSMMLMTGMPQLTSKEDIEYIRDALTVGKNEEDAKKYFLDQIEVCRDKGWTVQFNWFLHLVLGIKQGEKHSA

In the case of `C[C@H]1OC(=O)N(c2cc(-c3cnc(N)nc3C(F)(F)F)nc(N3CCOCC3)n2)[C@H]1CO` [Example 18, (4S,5R)-3-(2′-Amino-2-morpholin-4-yl-4′-trifluoromethyl-[4,5′]bipyrimidinyl-6-yl)-4-hydroxymethyl-5-methyl-oxazolidin-2-one], the IC50 came out at 253 nM on PI3Kgamma and 4 nM at human PI3Kβ.
For `C[C@@H]1OC(=O)N(c2cc(-c3cnc(N)nc3C(F)(F)F)nc(N3CCOCC3)n2)[C@H]1CO` [Example 6] the same measures were 258 nM and 7 nM.
For `Nc1ncc(-c2cc(N3C[C@H](CO)OC3=O)nc(N3CCOCC3)n2)c(C(F)(F)F)n1` [Example 20, (R)-3-(2′-Amino-2-morpholin-4-yl-4′-trifluoromethyl-[4,5′]bipyrimidinyl-6-yl)-5-hydroxymethyl-oxazolidin-2-one] the same measures were 601 nM and 11 nM.
On to `COC[C@H]1COC(=O)N1c1cc(-c2cnc(N)nc2C(F)(F)F)nc(N2CCOCC2)n1` [Example 5, (S)-3-(2′-Amino-2-morpholin-4-yl-4′-trifluoromethyl-[4,5′]bipyrimidinyl-6-yl)-4-methoxymethyl-oxazolidin-2-one], for which the IC50 was found to be 329 nM at PI3Kgamma and 11 nM on human PI3Kβ.
For `Nc1ncc(-c2cc(N3C(=O)OC4C(O)CCC43)nc(N3CCOCC3)n2)c(C(F)(F)F)n1` (single isomer, unassigned) [Example 22B], the IC50 on PI3Kgamma worked out at 410 nM; at human PI3Kβ it was 58 nM.
For `C[C@H]1[C@@H](CO)OC(=O)N1c1cc(-c2cnc(N)nc2C(F)(F)F)nc(N2CCOCC2)n1` [Example 19, (4S,5S)-3-(2′-Amino-2-morpholin-4-yl-4′-trifluoromethyl-[4,5′]bipyrimidinyl-6-yl)-5-hydroxymethyl-4-methyl-oxazolidin-2-one], in that order: 184 nM and 5 nM.
`C[C@H]1OC(=O)N(c2cc(-c3cnc(N)nc3C(F)(F)F)nc(N3CCOC[C@@H]3C)n2)[C@H]1CO` [Example 10, (4S,5R)-3-[2′-Amino-2-((S)-3-methyl-morpholin-4-yl)-4′-trifluoromethyl-[4,5′]bipyrimidinyl-6-yl]-4-hydroxymethyl-5-methyl-oxazolidin-2-one] returned a melting point of 217.7 °C. Moreover, the IC50 on PI3Kgamma was determined as 158 nM. Also, the IC50 on human PI3Kβ worked out at 38 nM.
For the molecule `Nc1ncc(-c2cc(N3C(=O)O[C@@H]4[C@@H](O)CC[C@@H]43)nc(N3CCOCC3)n2)c(C(F)(F)F)n1` (racemic) [Example 22, (3aR*,6R*,6aR*)-3-(2′-Amino-2-morpholino-4′-(trifluoromethyl)-[4,5′-bipyrimidin]-6-yl)-6-hydroxyhexahydro-2H-cyclopenta[d]oxazol-2-one], the values for the IC50 at PI3Kgamma and on human PI3Kβ were 145 nM and 48 nM, respectively.
For `C[C@H](O)CC1OC(=O)N(c2cc(-c3cnc(N)nc3C(F)(F)F)nc(N3CCOCC3)n2)[C@H]1C` (single isomer, unassigned) [Example 25] the same measures were 205 nM and 11 nM.
For `[2H]C1([2H])OC([2H])([2H])C([2H])([2H])N(c2nc(-c3cnc(N)nc3C(F)(F)F)cc(N3C(=O)O[C@H](C)[C@@H]3CO)n2)C1([2H])[2H]` [Example 8], the figures for the IC50 at PI3Kgamma and on human PI3Kβ were 237 nM and 4 nM, respectively.
As to `C[C@H]1OC(=O)N(c2cc(-c3cnc(N)nc3C(F)(F)F)nc(N3CCOCC3)n2)[C@H]1COC=O` [Example 12, Formic acid (4S,5R)-3-(2′-amino-2-morpholin-4-yl-4′-trifluoromethyl-[4,5′]bipyrimidinyl-6-yl)-5-methyl-2-oxo-oxazolidin-4-ylmethyl ester], the IC50 at PI3Kgamma was 1660 nM; at human PI3Kβ, 49 nM.

By melting point is commonly meant the temperature, or range, at which the solid turns liquid.
